# From EP0519427A2, “N-substituted-3-iodopropiolamide, production and use thereof” (priority 1991, dated 1992)
# Assays:
# Type in all cases: cell-based
# [1] = tested on: Bacillus subtilis IFO-13719; experiment: Antibacterial and antifungal activity, paper disc method; settings: paper disc d=8 mm dipped in 1,000 µg/ml solution, TSA medium; for zone of inhibition at 1000 µg/mL: Bacillus subtilis, IFO13719, read-out: diameter of the growth inhibition circle, Bac.(IFO-13719)
# Procedure: (§1) Antibacterial and antifungal activity tests for various bacteria and fungi were conducted. The tests were carried out by the conventional paper disc method. That is, a paper disc (d=8 mm) was dipped in aqueous or methanol solution of the compound of the present invention (concentration : 1,000 µg/ml), then dried and used.
# (§2) As bacteria to be tested, • ① Staphylococcus aureus IFO-12732 [hereinafter abbreviated to Sta.] • ② Bacillus subtilis IFO-13719 [Bac.] • ③ Escherichia coli IFO-3301 [Esc.] were used. As yeast to be tested, • ④ Saccharomyces cerevisiae IFO-0210 [Sac.] • ⑤ Candida albicans IFO-0583 [Can.] were used. As fungi to be tested, • ⑥ Aspergillus niger IFO-4407 [Asp.] • ⑦ Penicillium citrinum IFO-7784 [Pen.] • ⑧ Tyromyces palustris IFO-30339 [Tyr.] • ⑨ Coriolus versicolor IFO-30340 [Cor.] were used. Among the above fungi, Tyr. and Cor. are wood rot fungi.
# (§3) As the test media, agar media shown below were used. That is, TSA (Trypticase Soy Agar) medium was used for Sta., Bac. and Esc.; YNB (Yeast Nitrogen Base) agar medium was used for Sac. and Can.; SDA (Sabouraud Dextrose Agar) medium was used for Asp. and Pen.; and PDA (Potato Dextrose Agar) medium was used for Try. and Cor.
# (§4) The determination of antibacterial and antifungal effectiveness was carried out by measuring the diameter of the growth inhibition circle generated on the circumference of the paper disc. The indication of effectiveness is given as follows: -: no growth inhibition circle was observed. +: diameter of the growth inhibition circle was 9 - 20 mm ++: diameter of the growth inhibition circle was 21 - 40 mm +++: diameter of the growth inhibition circle was 41 mm or more
# [2] = tested on: Candida albicans IFO-0583; experiment: as above; settings: IFO0583, paper disc d=8 mm dipped in 1,000 µg/ml solution, YNB agar medium, read-out: diameter of the growth inhibition circle, Can.(IFO-0583)
# Procedure: as §1, §2, §3, §4
# [3] = tested on: Aspergillus niger van Tieghem IFO 6341; experiment: Fungicide activity for wood fungicide (rating of fungi growth on treated wood); settings: beech specimens dipped 3 min in fungicide solution, 4 weeks culture; rating 0 (no growth) to 3; mean of 6 specimens
# Procedure: (§5) This test was conducted according to Specification No.2 of Japan Wood Preserving Association, enacted in 1979 and titled "Test methods of fungicide activity for wood fungicide".
# (§6) • ① Aspergillus niger van Tieghem IFO 6341 = ATCC 6275 • ② Penicillium funiculosum Thom (formerly : Penicillium luteum Zukal) IFO 6345 = ATCC 9644 • ③ Rhizopus javanicus Takeda (formerly : Rhizopus nigricans Ehrenberg S.N. 32) IFO 6354 • ④ Aureobasidium pullulans (de Bary) Arnaud IFO 6353 = IAM (H. Iizuka, F-24) • ⑤ Gliocladium virens Miller, Gidden & Fosteb IFO 6355 = ATCC 9645 (formerly : Trichoderma viride, T.I.)
# (§7) The fungi ① , ② , ③ and ⑤ are classified as fungi imperfecti, and the fungus ④ as blue stain fungus.
# (§8) The Culture medium comprised the potato-sap agar culture medium (specified in the Japan Industrial Standard (JIS) Z 2911- 1960) of 50 ml, put in the conical flask of 100 ml, sterilized by steam at 1.4-1.6 kgf/cm² .G (137.2-156.8 KPa) for 30 minutes.
# (§9) The fungi to be used were inoculated into the culture medium specified in the previous section and were cultured at 26 ± 2 °C under the relative humidity of 70-80 % for two weeks.
# (§10) The potato sap of 50 ml, sterilized, cooled to room temperature and to which dioctyl sodium sulfosuccinate, a wetting agent, was added so as to become 0.005 %, was dropped to the fully breeding fungi layer, and was agitated with a platinum spatula in such a way that the spore was torn off. The resulting liquid filtered by sterilized gauze was the spore suspension.
# (§11) 3-5-1 A Petri dish measured 90-100 mm in diameter and 20 mm in height.
# (§12) 3-5-2 Agar liquid (which has no nutrients) of 2 % sterilized by steam was dropped onto the Petri dish sterilized by dry heat, and then was solidified.
# (§13) 3-5-3 Three mm diameter sterilized glass bars or plastic nets made of polypropylene, etc. were placed to prevent the test specimens from touching with agar directly.
# (§14) 3-6-1 The type of trees for wood specimens was beech. The cross section was of grain face, and the dimension was 20 mm wide 3 mm thick and 50 mm long.
# (§15) 3-6-2 Wood specimens were supplied with nutrients in such a way that they were dipped into the potato-sap (the one in the section 3-2, but agar was not added) for 3 minutes.
# (§16) 3-6-3 Nutrient-supplied wood specimens, after drying at 60 °C, were used for testing immediately. They were temporarily stored at 0 °C, but they were served to tests as soon as possible.
# (§17) The test specimens were of two types, treated and untreated speciments. The treated specimens referred to the one treated with fungicide. The untreated specimens were of two types, the one really untreated and the other treated with solvent only.
# (§18) 3-7-2-1 Nutrients-supplied wood specimens were dried at 60 ± 2 °C, and then their weights (W₀) were measured. Test specimens of 10-20 pieces were piled up in a one liter beaker in such a way that two specimens constant space apart from each other were alternately put on the other two specimens also constant space apart from each other. On the top of the two specimens, a weight was placed. Through the test specimens thus arranged, the fungicide solution was introduced. The level of the fungicide solution was one centimeter above the top specimens. The test specimens were dipped for three minutes after the fungicide solution introduction.
# (§19) After finishing dipping, the test specimens were wiped softly, and then the weights (W₁) were measured immediately. As control experiment, the same procedure as the above was done using solvent without fungicide.
# (§20) 3-7-2-2 The amounts of solution pick-up and fungicide pick-up were calculated with the following equations: The amount of solution absorption: RL = W₁ - W₀ [formula] The amount of fungicide absorption: Rc = RL × fungicide concentration [formula] 3-7-2-3 Wood specimens treated were placed without contacting each other, then were air-dried for two days, and then served as the treated test specimens. […]
# [4] = tested on: Aureobasidium pullulans (de Bary) Arnaud IFO 6353; experiment: as above; settings: beech specimens dipped 3 min in fungicide solution, 4 weeks culture; rating 0 (no growth) to 3; mean of 6 specimens
# Procedure: as §5, §6, §7, §8, §9, §10, §11, §12, §13, §14, §15, §16, §17, §18, §19, §20
# [5] = tested on: Gliocladium virens Miller, Gidden & Fosteb IFO 6355; experiment: as above; settings: beech specimens dipped 3 min in fungicide solution, 4 weeks culture; rating 0 (no growth) to 3; mean of 6 specimens
# Procedure: as §5, §6, §7, §8, §9, §10, §11, §12, §13, §14, §15, §16, §17, §18, §19, §20
# [6] = tested on: Penicillium funiculosum Thom IFO 6345; experiment: as above; settings: beech specimens dipped 3 min in fungicide solution, 4 weeks culture; rating 0 (no growth) to 3; mean of 6 specimens
# Procedure: as §5, §6, §7, §8, §9, §10, §11, §12, §13, §14, §15, §16, §17, §18, §19, §20
# [7] = tested on: Rhizopus javanicus Takeda IFO 6354; experiment: as above; settings: beech specimens dipped 3 min in fungicide solution, 4 weeks culture; rating 0 (no growth) to 3; mean of 6 specimens
# Procedure: as §5, §6, §7, §8, §9, §10, §11, §12, §13, §14, §15, §16, §17, §18, §19, §20
# [8] = tested on: Aspergillus Niger (IFO 6341), Penicillium funiculosum (IFO 6345), Rhizopus javanicus (IFO 6354), Aureobasidium pullulans (IFO 6353), Gliocladium virens (IFO …); experiment: Fungicide activity for wood fungicide, sum of average ratings and damage value over the five fungi; settings: for damage value: D = S₁ / S₀ × 100, untreated 100.0, lower = higher fungicide activity; for Sum (of average rating values A₁ to A₅): S = A₁ + A₂ + A₃ + A₄ + A₅, untreated 15.0; for wood fungicide activity (statement in words): summary of Table 3
# Procedure: as §5, §6, §7, §8, §9, §10, §11, §12, §13, §14, §15, §16, §17, §18, §19, §20
SMILES,zone of inhibition at 1000 µg/mL [1] [mm],zone of inhibition at 1000 µg/mL [2] [mm],"Average rating value, A₁ : Aspergillus Niger (IFO 6341) [3]","Average rating value, A₄ : Aureobasidium pullulans (IFO 6353) [4]","Average rating value, A₅ : Gliocladium virens (IFO 6355) [5]","Average rating value, A₂ : Penicillium funiculosum (IFO 6345) [6]","Average rating value, A₃ : Rhizopus javanicus (IFO 6354) [7]",damage value [8],Sum (of average rating values A₁ to A₅) [8],wood fungicide activity (statement in words) [8],"diameter of the growth inhibition circle, Bac.(IFO-13719) [1]"
"CC(C)(C)NC(=O)C#CI [Example 1, N-(tert-Butyl)-3-iodopropiolamide]",9 to 20,21 to 40,0.0,0.0,0.0,0.0,2.0,13.3,2.0,excellent wood fungicide activity,
"CCCCCCCCCCNC(=O)C#CI [Example 2, N-(n-Decyl)-3-iodopropiolamide]",9 to 20,9 to 20,3.0,0.0,1.3,2.0,3.0,62.2,9.3,,
"CCCCNC(=O)C#CI [Example 4, N-(n-Butyl)-3-iodopropiolamide]",9 to 20,21 to 40,0.0,0.0,1.0,0.0,0.0,6.7,1.0,excellent wood fungicide activity,
"CCC(C)NC(=O)C#CI (centres unmarked) [Example 5, N-(sec-Butyl)-3-iodopropiolamide]",9 to 20,21 to 40,0.0,0.0,1.3,0.0,3.0,28.9,4.3,excellent wood fungicide activity,
"CC(C)CNC(=O)C#CI [Example 6, N-Isobutyl-3-iodopropiolamide]",21 to 40,21 to 40,0.0,0.0,0.0,0.0,3.0,20.2,3.0,excellent wood fungicide activity,
"CCCCCNC(=O)C#CI [Example 7, N-(n-Pentyl)-3-iodopropiolamide]",9 to 20,21 to 40,0.2,0.0,1.8,0.2,3.0,34.4,5.2,,
"CCCCCCNC(=O)C#CI [Example 8, N-(n-Hexyl)-3-iodopropiolamide]",9 to 20,21 to 40,0.3,0.0,0.2,0.0,3.0,23.3,3.5,excellent wood fungicide activity,
"CCCCCCCNC(=O)C#CI [Example 9, N-(n-Heptyl)-3-iodopropiolamide]",9 to 20,21 to 40,1.7,0.3,1.5,1.0,3.0,50.0,7.5,,
"CCCCCCCCNC(=O)C#CI [Example 10, N-(n-Octyl)-3-iodopropiolamide]",,21 to 40,2.7,0.0,2.2,0.3,3.0,54.4,8.2,,-
"CCCCCCCCCNC(=O)C#CI [Example 11, N-(n-Nonyl)-3-iodopropiolamide]",,9 to 20,3.0,1.7,2.8,1.8,3.0,82.2,12.3,,-
